Laboratory results published in ChEMBL document CHEMBL4806956, “1-heteroaryl-indoline-4-carboxamides as modulators of gpr52 useful for the treatment or prevention of disorders related thereto” (2020).
Active and inactive are the calls of the source. The calls are words filed in the database; no cut-off is given here.

What was measured:
[1] = target: G-protein coupled receptor 52 (Mus musculus) (UniProt P0C5J4); assay: In vivo agonist activity at GPR52 in C57BL/6 mouse assessed as inhibition of basal locomotor activity at 10 mg/kg, po measured for 60 mins starting at 15 mins post-drug challenge; assay type: functional, organism-based; details: time 75.0 min
[2] = Ratio of drug level in brain to plasma in C57BL/6 mouse at 10 mg/kg, po measured after 60 mins by LC/MS/MS analysis; assay type: ADME, organism-based; details: brain and plasma, read-out: BPR
[3] = Induction of hyperprolactinemia in Sprague-Dawley rat assessed as increase in prolactin release in plasma at 0.1 to 1 mg/kg, po measured after 60 mins by ELISA; assay type: organism-based; details: in vivo, 1 h, dose 0.1-1 mg/kg
[4] = Induction of catalepsy in Sprague-Dawley rat assessed as increase in latency to move both forepaws at 0.1 to 1 mg/kg, sc measured after 45 mins; assay type: organism-based; details: in vivo, 0.75 h, dose 0.1-1 mg/kg
[5] = Ratio of drug level in brain to plasma in C57BL/6 mouse at 3 mg/kg, po measured after 60 mins by LC/MS/MS analysis; assay type: ADME, organism-based; details: brain and plasma, read-out: BPR
Rattus norvegicus [6] = assay: Antipsychotic activity in Sprague-Dawley rat assessed as inhibition of MK801-induced disruption of prepulse inhibition at 5 to 20 mg/kg, po administered 15 mins prior to […] and measured after 15 mins; assay type: functional, organism-based; details: dose 5-20 mg/kg, time 30.0 min
Mus musculus [7] = assay: Increase in PPI in 129Sv/Ev mouse with low PPI at 10 mg/kg, po measured after 30 mins; assay type: functional, organism-based
[8] = target: G-protein coupled receptor 52 (Mus musculus) (UniProt P0C5J4); assay: In vivo agonist activity at GPR52 in po dosed C57BL/6 mouse assessed as inhibition of basal locomotor activity measured for 60 mins starting at 15 mins post-drug challenge; assay type: functional, organism-based; details: time 75.0 min
[9] = Induction of catalepsy in Sprague-Dawley rat assessed as increase in latency to move both forepaws at 5 to 100 mg/kg, po measured after 45 mins; assay type: organism-based; details: in vivo, 0.75 h, dose 5-100 mg/kg
[10] = Induction of hyperprolactinemia in Sprague-Dawley rat assessed as increase in prolactin release in plasma at 1 to 100 mg/kg, po measured after 60 mins by ELISA; assay type: organism-based; details: in vivo, 1 h, dose 1-100 mg/kg
Rattus norvegicus [11] = assay: Antipsychotic activity in Sprague-Dawley rat assessed as inhibition of amphetamine-induced disruption of prepulse inhibition at 5 to 20 mg/kg, po administered 15 mins prior to amphetamine challenge and measured after 15 mins; assay type: functional, organism-based; details: dose 5-20 mg/kg, time 30.0 min
Rattus norvegicus [12] = assay: Inhibition of haloperidol-induced hyperprolactinemia in Sprague-Dawley rat assessed as reduction in prolactin release in plasma at 10 mg/kg, po administered 30 mins prior to 0.3 mg/kg haloperidol challenge and measured after 60 mins by ELISA; assay type: functional, organism-based; details: time 90.0 min
Mus musculus [13] = assay: Antipsychotic activity in 129Sv/Ev mouse assessed as inhibition of MK801-induced disruption of prepulse inhibition at 10 mg/kg, po co-administered with haloperidol at 15 mins prior to MK801 challenge and measured after 15 mins; assay type: functional, organism-based; details: time 30.0 min
Rattus norvegicus [14] = assay: Antipsychotic activity in Sprague-Dawley rat assessed as inhibition of amphetamine-stimulated locomotor activity at 0.5 to 20 mg/kg, po administered 15 mins prior to amphetamine stimulation and measured for 30 to 60 mins post-drug dosage; assay type: functional, organism-based; details: dose 0.5-20 mg/kg, time 30-60 min
[15] = Toxicity in Sprague-Dawley rat assessed as inhibition of basal locomotor activity at 20 mg/kg, po; assay type: organism-based; details: in vivo

Sequence of G-protein coupled receptor 52 (Mus musculus) (P0C5J4 whole entry): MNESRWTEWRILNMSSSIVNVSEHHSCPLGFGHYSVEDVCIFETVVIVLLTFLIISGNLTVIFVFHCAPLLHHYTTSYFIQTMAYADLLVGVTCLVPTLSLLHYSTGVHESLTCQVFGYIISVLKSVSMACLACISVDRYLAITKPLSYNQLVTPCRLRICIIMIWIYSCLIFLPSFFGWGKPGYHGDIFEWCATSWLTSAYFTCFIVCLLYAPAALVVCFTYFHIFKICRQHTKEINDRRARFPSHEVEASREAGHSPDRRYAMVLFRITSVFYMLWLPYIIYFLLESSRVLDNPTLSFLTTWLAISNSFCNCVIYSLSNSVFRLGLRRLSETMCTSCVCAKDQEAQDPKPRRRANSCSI

Structure (SMILES)	inhibition [1] [%]	Kp at 1 h [2]	also measured
COc1ccc(Cc2ccnc(N3CCc4c(C(=O)NC[C@@H](F)CO)cccc43)c2)cc1F	67		
O=C(NCCO)c1cccc2c1CCN2c1cc(Cc2cc(F)cc(Cl)c2)ccn1	79	5.45	
O=C(NCCO)c1c(F)ccc2c1CCN2c1cc(Cc2cc(F)c(F)c(F)c2)ccn1	68		
C[C@@H](O)CNC(=O)c1cccc2c1CCN2c1cc(Cc2cc(F)c(F)c(F)c2)ccn1	68		
O=C(CCCN1CCC(O)(c2ccc(Cl)cc2)CC1)c1ccc(F)cc1 [HALOPERIDOL]			Activity [3]: Toxic; Activity [4]: Toxic
NC(=O)c1cccc2c1CCN2c1cc(Cc2cccc(C(F)(F)F)c2)ccn1			Kp at 1 h [5]: 4.49
COc1ccc(Cc2ccnc(N3CCc4c3ccc(F)c4C(=O)NC[C@@H](F)CO)c2)cc1F	62		
NC(=O)c1cccc2c1CCN2c1cc(Cc2cc(F)cc(Cl)c2)ccn1		12.4	
NC(=O)c1cccc2c1CCN2c1cc(Cc2cncc(C(F)(F)F)c2)ccn1		4.67	
O=C(NCCO)c1c(F)ccc2c1CCN2c1cc(Cc2cccc(C(F)(F)F)c2)ccn1		1.67	
COc1ccc(Cc2ccnc(N3CCc4c(C(=O)NCCO)cccc43)c2)cc1F		0.87	
O=C(NCCO)c1cccc2c1CCN2c1cc(Cc2cccc(C(F)(F)F)c2)ccn1	70		Activity (Rattus norvegicus [6]): Active; Activity (Mus musculus [7]): Active; ED50 [8]: 2.7 mg/kg; Activity [9]: Non-Toxic; Activity [10]: Non-Toxic; Activity (Rattus norvegicus [11]): Active; inhibition (Rattus norvegicus [12]): Active; Activity (Mus musculus [13]): Active; Activity (Rattus norvegicus [14]): Active; Activity [15]: Toxic; Kp at 1 h [5]: 3.51
NC(=O)c1cccc2c1CCN2c1cc(Cc2ccc(F)c(Cl)c2)ccn1		7.76	
NC(=O)c1cccc2c1CCN2c1cc(Cc2ccc3occc3c2)ccn1	81		
O=C(NCCO)c1cccc2c1CCN2c1cc(Cc2cc(F)c(F)c(F)c2)ccn1	65	3	
NC(=O)c1cccc2c1CCN2c1cc(Cc2ccc(F)c(C(F)(F)F)c2)ccn1	61		
CC(=O)c1cccc(Cc2ccnc(N3CCc4c(C(N)=O)cccc43)c2)c1	72	1.36	
O=C(NC1CCN(CCO)CC1)c1cccc2c1CCN2c1cc(Cc2ccc3c(c2)CCO3)ccn1		0.16	
COC[C@@H](O)CNC(=O)c1cccc2c1CCN2c1cc(Cc2cc(F)c(F)c(F)c2)ccn1	72		
O=C(NC[C@@H](F)CO)c1cccc2c1CCN2c1cc(Cc2cc(F)c(F)c(F)c2)ccn1	70	2.85	
COc1ccc(Cc2ccnc(N3CCc4c(C(N)=O)cccc43)c2)cc1F	66	6.32	
